Assay results reported in paper PMC5318888, “SAMHD1 enhances nucleoside-analogue efficacy against HIV-1 in myeloid cells” (Scientific Reports, 2017).

Key:
[1] = test system: HIV-1-GFP; assay: microbe, parasite or virus in culture; assay type: cell-based
Description: (§1) H9 and Jurkat cells (6 × 10^5 cells/mL) were treated with increasing concentrations of nucleoside analogues (0–200 μM; except CFB, 0–1.6 μM) and incubated for 4 h at 37 °C in 5% CO2. Cells were then infected with HIV-1-GFP by spinoculation at 800 × g for 90 min in the presence of 1 μg/mL polybrene, and further incubated at 37 °C in 5% CO2 for 72 h. Undifferentiated U937 and THP-1 (PMA^−) cells (6 × 10^5 cells/mL) were treated with increasing concentrations of nucleoside analogues (0–200 μM; except CFB, 0–1.6 μM) and incubated at 37 °C in 5% CO2 for 48 h. Cells were then infected with HIV-1-GFP by spinoculation at 800 × g for 90 min in the presence of 1 μg/mL polybrene, and further incubated at 37 °C in 5% CO2 for 72 h. Non-dividing U937 and THP-1 (PMA^+) cells (6 × 10^5 cells/mL) were differentiated by addition of 100 nM PMA (PMA^+) for 48 h and treated with increasing concentrations of nucleoside analogues as described above. Cells were then infected with HIV-1-GFP in the presence of 1 μg/mL polybrene and further incubated at 37 °C in 5% CO2 for 72 h. The percentage of GFP^+cells was determined by one-colour flow cytometry using a Fortessa X20 analyser (BD Biosciences) and the data analysed using the FlowJo software suite.
(§2) Non-ambiguous values were subjected to a replicate test to calculate confidence intervals of 95% (95% CI). CC50 and EC50 values were determined for at least two independent experiments for each nucleoside analogue and a selectivity index (SI) also calculated, (SI = CC50/EC50). EC50 values for each replicate were used to perform an unpaired two-tailed t-test to determine significant differences between U937 cells expressing SAMHD1 wt or HD206-7AA mutant and THP-1 cells expressing Vpx or untransduced cells. P values of <0.005 were considered statistically significant.

[2] = test system: HIV-1-GFP; assay: Anti-HIV-1 activity in U937 cells transduced with wt SAMHD1 or HD206-7AA mutant; assay type: cell-based
Description: (§3) Antiviral assays were further performed in monocytoid cells transduced with YFP-expressing VLPs containing WT SAMHD1, HD206-7AA or Vpx. Briefly, U937 cells (6 × 10^5 cells/mL) were transduced with WT SAMHD1-YFP or HD206-7AA-YFP VLPs by spinoculation at 800 × g for 90 min in the presence of 1 μg/mL polybrene. Similarly, THP-1 cells (6 × 10^5 cells/mL) were transduced with Vpx-YFP VLPs by spinoculation at 800 × g for 90 min in the presence of 1 μg/mL polybrene. Cells were incubated at 37 °C in 5% CO2 and after 72 h, PMA^+ cells (6 × 10^5 cells/mL) were treated with 100 nM PMA and PMA^− cells (7.5 × 10^4 cells/mL) were left untreated. Cells were then incubated at 37 °C in 5% CO2 for 48 h. Nucleoside analogues were added at increasing concentrations (0–200 μM; except CFB, 0–1.6 μM) and cells were further incubated for 48 h. PMA^− cells were then infected with HIV-1-GFP by spinoculation at 800 × g for 90 min in the presence of 1 μg/mL polybrene, PMA^+ cells were infected with HIV-1-GFP in the presence of 1 μg/mL polybrene only. Cells were incubated for 72 h at 37 °C in 5% CO2 and then analysed by two-colour flow cytometry using a Fortessa X20 analyser (BD Biosciences). Data were analysed using the FlowJo software suite.
as §2, with “The cytotoxic concentration of nucleoside analogue that inhibits cell viability by 50% (CC50) and the effective concentration of nucleoside analogue that inhibits infection of cells by 50% (EC50) were calculated for each independent experiment by non-linear regression using GraphPad Prism v6.00 for Windows (GraphPad Software, San Diego, CA). Non-ambiguous” for “Non-ambiguous”

[3] = test system: HIV-1-GFP; assay: Anti-HIV-1 activity in THP-1 cells with or without Vpx transduction; assay type: cell-based
Description: as §3
as §2, with “The cytotoxic concentration of nucleoside analogue that inhibits cell viability by 50% (CC50) and the effective concentration of nucleoside analogue that inhibits infection of cells by 50% (EC50) were calculated for each independent experiment by non-linear regression using GraphPad Prism v6.00 for Windows (GraphPad Software, San Diego, CA). Non-ambiguous” for “Non-ambiguous”

[4] = Cytotoxicity, live cells by flow cytometry, H9 cells; assay type: cell-based; settings: human
Description: (§4) H9, Jurkat and undifferentiated U937 and THP-1 (PMA^−) cells (6 × 10^5 cells/mL) were treated with increasing concentrations of nucleoside analogues (0–200 μM; except CFB, 0–1.6 μM) and incubated at 37 °C in 5% CO2 for 48 h. Medium was then replaced and cells were further incubated for 72 h. Non-dividing U937 and THP-1 (PMA^+) cells (6 × 10^5 cells/mL) were differentiated by addition of 100 nM phorbol-12-myristate-13-acetate (PMA^+) for 48 h and then treated with increasing concentrations of nucleoside analogues as described above. The percentage of live cells was determined by flow cytometry using Live/Dead fixable blue-fluorescent dyes (Invitrogen) and a Fortessa X20 analyser (BD Biosciences). Data were analysed using the FlowJo software suite.
as §2, with “The cytotoxic concentration of nucleoside analogue that inhibits cell viability by 50% (CC50) and the effective concentration of nucleoside analogue that inhibits infection of cells by 50% (EC50) were calculated for each independent experiment by non-linear regression using GraphPad Prism v6.00 for Windows (GraphPad Software, San Diego, CA). Non-ambiguous” for “Non-ambiguous”

[5] = Cytotoxicity, live cells by flow cytometry, Jurkat cells; assay type: cell-based; settings: human
Description: as §4
as §2, with “The cytotoxic concentration of nucleoside analogue that inhibits cell viability by 50% (CC50) and the effective concentration of nucleoside analogue that inhibits infection of cells by 50% (EC50) were calculated for each independent experiment by non-linear regression using GraphPad Prism v6.00 for Windows (GraphPad Software, San Diego, CA). Non-ambiguous” for “Non-ambiguous”

[6] = Cytotoxicity, live cells by flow cytometry, U937 cells (PMA−/PMA+); assay type: cell-based; settings: human, CC50
Description: as §4
as §2, with “The cytotoxic concentration of nucleoside analogue that inhibits cell viability by 50% (CC50) and the effective concentration of nucleoside analogue that inhibits infection of cells by 50% (EC50) were calculated for each independent experiment by non-linear regression using GraphPad Prism v6.00 for Windows (GraphPad Software, San Diego, CA). Non-ambiguous” for “Non-ambiguous”

[7] = test system: U937 cells; assay: as above; assay type: cell-based; settings: human, 48 h
Description: as §4
as §2, with “The cytotoxic concentration of nucleoside analogue that inhibits cell viability by 50% (CC50) and the effective concentration of nucleoside analogue that inhibits infection of cells by 50% (EC50) were calculated for each independent experiment by non-linear regression using GraphPad Prism v6.00 for Windows (GraphPad Software, San Diego, CA). Non-ambiguous” for “Non-ambiguous”

[8] = Cytotoxicity, live cells by flow cytometry, THP-1 cells (PMA−/PMA+); assay type: cell-based; settings: human, CC50
Description: as §4
as §2, with “The cytotoxic concentration of nucleoside analogue that inhibits cell viability by 50% (CC50) and the effective concentration of nucleoside analogue that inhibits infection of cells by 50% (EC50) were calculated for each independent experiment by non-linear regression using GraphPad Prism v6.00 for Windows (GraphPad Software, San Diego, CA). Non-ambiguous” for “Non-ambiguous”

[9] = test system: THP-1 cells; assay: as above; assay type: cell-based; settings: human, 48 h
Description: as §4
as §2, with “The cytotoxic concentration of nucleoside analogue that inhibits cell viability by 50% (CC50) and the effective concentration of nucleoside analogue that inhibits infection of cells by 50% (EC50) were calculated for each independent experiment by non-linear regression using GraphPad Prism v6.00 for Windows (GraphPad Software, San Diego, CA). Non-ambiguous” for “Non-ambiguous”

[10] = in vitro; assay type: cell-based; settings: human
Description: as §4
as §2, with “The cytotoxic concentration of nucleoside analogue that inhibits cell viability by 50% (CC50) and the effective concentration of nucleoside analogue that inhibits infection of cells by 50% (EC50) were calculated for each independent experiment by non-linear regression using GraphPad Prism v6.00 for Windows (GraphPad Software, San Diego, CA). Non-ambiguous” for “Non-ambiguous”

[11] = test system: HIV-1-GFP; assay: microbe, parasite or virus in culture; assay type: cell-based; remark: listed apart in the source
Description: as §1, with “Cells” for “H9 and Jurkat cells (6 × 10^5 cells/mL) were treated with increasing concentrations of nucleoside analogues (0–200 μM; except CFB, 0–1.6 μM) and incubated for 4 h at 37 °C in 5% CO2. Cells”, “Undifferentiated U937 and THP-1 (PMA^−) cells (6 × 10^5 cells/mL) were treated with increasing concentrations of nucleoside analogues (0–200 μM; except CFB, 0–1.6 μM) and incubated at 37 °C in 5% CO2 for 48 h.” left out
as §2

[12] = target: T1, SAMHD1 (Homo sapiens, UniProt Q9Y3Z3); design: method as in PMID 25331707; settings: previous in vitro assays; cited from earlier work
T1 construct: The final concentrations were 100 nM SAMHD1(115–626), 10 nM Ppx1; strep-tag; made in house

[13] = Human immunodeficiency virus 1, THP-1, read-out: EC50 [95% CI], THP1 PMA+
[14] = Human immunodeficiency virus 1, THP-1, read-out: EC50 [95% CI], THP1 PMA−
[15] = Human immunodeficiency virus 1, U-937, read-out: EC50 [95% CI], U937 PMA+
[16] = Human immunodeficiency virus 1, U-937, read-out: EC50 [95% CI], U937 PMA−
[17] = Human immunodeficiency virus 1, U-937, read-out: EC50 [95% CI], U937 PMA+, HD206/7AA+ population
[18] = Human immunodeficiency virus 1, U-937, read-out: EC50 [95% CI], U937 PMA+, SAMHD1+ population
[19] = Human immunodeficiency virus 1, U-937, read-out: EC50 [95% CI], U937 PMA−, HD206/7AA+ population
[20] = Human immunodeficiency virus 1, U-937, read-out: EC50 [95% CI], U937 PMA−, SAMHD1+ population
[21] = Human immunodeficiency virus 1, THP-1, read-out: EC50 [95% CI], THP1 PMA+, Vpx+
[22] = Human immunodeficiency virus 1, THP-1, read-out: EC50 [95% CI], THP1 PMA+, Vpx−
[23] = Human immunodeficiency virus 1, THP-1, read-out: EC50 [95% CI], THP1 PMA−, Vpx+
[24] = Human immunodeficiency virus 1, THP-1, read-out: EC50 [95% CI], THP1 PMA−, Vpx−

T1 sequence (Q9Y3Z3 115-626): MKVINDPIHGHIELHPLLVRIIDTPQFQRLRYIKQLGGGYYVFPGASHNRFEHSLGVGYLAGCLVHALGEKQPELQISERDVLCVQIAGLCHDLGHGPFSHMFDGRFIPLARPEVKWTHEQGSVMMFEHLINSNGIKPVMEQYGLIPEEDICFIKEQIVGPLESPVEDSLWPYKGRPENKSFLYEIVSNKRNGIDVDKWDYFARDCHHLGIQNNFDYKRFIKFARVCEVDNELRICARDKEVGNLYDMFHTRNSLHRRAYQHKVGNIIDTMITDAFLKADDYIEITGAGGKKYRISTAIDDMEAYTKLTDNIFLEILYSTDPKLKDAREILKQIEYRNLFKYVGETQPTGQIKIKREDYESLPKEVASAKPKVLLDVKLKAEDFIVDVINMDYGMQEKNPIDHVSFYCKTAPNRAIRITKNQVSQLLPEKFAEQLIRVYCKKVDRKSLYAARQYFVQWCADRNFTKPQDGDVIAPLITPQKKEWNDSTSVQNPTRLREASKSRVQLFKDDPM

Compound	EC50 [1, 13]	EC50 [1, 14]	EC50 [1, 15]	EC50 [1, 16]	EC50 [2, 17]	EC50 [2, 18]	EC50 [2, 19]	EC50 [2, 20]	EC50 [3, 21]	EC50 [3, 22]	EC50 [3, 23]	EC50 [3, 24]	CC50 at 48 h [4]	CC50 at 48 h [5]	further results
O=c1[nH]cnc2c1ncn2[C@H]1CC[C@@H](CO)O1 [ddI, 2′,3′-dideoxyinosine]	93 nM	2030 nM	2450 nM	45800 nM	8790 nM	109 nM	55100 nM	23700 nM	4340 nM	79 nM	2730 nM	1040 nM	> 200000 nM	> 200000 nM	CC50 at 48 h [6]: > 200000 nM; CC50 [7]: > 200000 nM; CC50 at 48 h [8]: > 200000 nM; CC50 [9]: > 200000 nM; CC50 at 48 h [10]: > 200000 nM
Nc1nc(Cl)nc2c1ncn2[C@@H]1O[C@H](CO)[C@@H](O)[C@@H]1F [CFB, 2-chloro-9-(2′-Deoxy-2′-fluoro-beta-D-arabinofuranosyl)adenine]	3 nM	132 nM	37 nM	119 nM	29 nM	1.3 nM	108 nM	138 nM	12 nM	3 nM	> 1600 nM	340 nM	31 nM	49 nM	SI, selectivity index CC50/EC50 ([11]; H9 cells): < 1; EC50 ([11]; Human immunodeficiency virus 1, H9, read-out: EC50 anti-HIV-1, H9 cells): 94 nM; EC50 ([11]; Human immunodeficiency virus 1, Jurkat, read-out: EC50 anti-HIV-1, Jurkat cells): 663 nM; SI, selectivity index CC50/EC50 ([11]; Jurkat cells): < 1; fold increase of anti-HIV-1 activity in PMA+ over PMA− cells ([1]; THP-1): 44 fold; SI, selectivity index CC50/EC50 ([1]; THP-1 PMA+): > 533; SI, selectivity index CC50/EC50 ([1]; THP-1 PMA−): < 1; fold increase of anti-HIV-1 activity in PMA+ over PMA− cells ([1]; U937): 3 fold; SI, selectivity index CC50/EC50 ([1]; U937 PMA+): > 43; SI, selectivity index CC50/EC50 ([1]; U937 PMA−): < 1; Fold (EC50 HD206/7AA vs SAMHD1) ([2]; U937 PMA+): 22 fold; Fold (EC50 HD206/7AA vs SAMHD1) ([2]; U937 PMA−): 1 fold; Fold (EC50 Vpx+ vs Vpx−) ([3]; THP1 PMA+): 4 fold; Fold (EC50 Vpx+ vs Vpx−) ([3]; THP1 PMA−): >5 fold
Nc1nc(O)c2ncn(COC(CO)COP(=O)(O)OP(=O)(O)OP(=O)(O)O)c2n1 (stereo not shown) [GCV-TP, Ganciclovir triphosphate]															allosteric activation of SAMHD1 [12]: displayed no activation of SAMHD1; hydrolysis by SAMHD1 (substrate) [12]: non-hydrolysable
